From PubChem BioAssay (NCI)
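Five compound concentrations were applied to cells in 96-well plates for 48 hours; endpoints were derived by simple linear interpolation of the resulting dose-response curve. GI50 = concentration required for 50% inhibition of growth. The concentration for full growth arrest is given as TGI.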

Experiments:
Test in all cases: NCI-60 cell line screen, 48 h
[1] = system: KM12 colon
[2] = system: MDA-MB-435
[3] = system: UO-31 renal
[4] = system: OVCAR-4 ovarian
[5] = system: A549 NSCLC
[6] = system: NCI/ADR-RES ovarian
[7] = system: OVCAR-8 ovarian
[8] = system: EKVX NSCLC
[9] = system: HOP-62 NSCLC
[10] = system: SF-295 CNS

| Compound | GI50 [1] | TGI [1] | GI50 [2] | TGI [2] | GI50 [3] | TGI [3] | GI50 [4] | TGI [4] | GI50 [5] | TGI [5] | GI50 [6] | TGI [6] | GI50 [7] | TGI [7] | GI50 [8] | TGI [8] | GI50 [9] | TGI [9] | GI50 [10] | TGI [10] |
| --- | --- | --- | --- | --- | --- | --- | --- | --- | --- | --- | --- | --- | --- | --- | --- | --- | --- | --- | --- | --- |
| COc1ccc(S(=O)(=O)N(C(C)=O)c2ccccc2/C=C/c2cc[n+]([O-])cc2)cc1 | 0.335 µM | > 10 µM | 0.143 µM | 0.576 µM | 5.02 µM | > 10 µM | > 6.79 µM | > 10 µM | 0.636 µM | > 10 µM | 2.51 µM | > 10 µM | 1.11 µM | > 10 µM | 1.02 µM | > 10 µM | 0.86 µM | > 10 µM | 0.385 µM | > 10 µM |
| CC(SCc1ccccc1)C(=O)O (stereo not given) | – | > 100 µM | – | > 100 µM | – | > 100 µM | – | > 100 µM | – | > 100 µM | – | > 100 µM | – | > 100 µM | – | > 100 µM | – | > 100 µM | – | > 100 µM |
| CCCCn1c(=O)c(/C=C/C(=O)/C=C/c2cc3ccccc3n(CCCC)c2=O)cc2ccccc21 | 0.678 µM | 2.2 µM | 0.206 µM | 0.478 µM | 1.53 µM | 3.21 µM | 2.78 µM | 9.12 µM | 1.56 µM | 3.17 µM | 3.01 µM | 13.5 µM | 1.5 µM | 4.12 µM | 1.88 µM | 4.42 µM | 2.27 µM | 4.08 µM | 1.84 µM | 4.24 µM |
| C[N+](C)=c1ccc2nc3c(cc(NCCCNc4cc5oc6cc(=[N+](C)C)ccc-6nc5c5ccccc45)c4ccccc43)oc-2c1 | 2.55 µM | 8.81 µM | 1.76 µM | 3.29 µM | 1.75 µM | 14 µM | 0.715 µM | 2.08 µM | – | – | 6.63 µM | > 100 µM | 1.9 µM | 5.85 µM | 4.77 µM | 18.5 µM | 2.92 µM | 13 µM | 4.64 µM | 31.8 µM |
| N#Cc1cc(S(=O)(=O)Nc2nc3ccccc3o2)c(SCc2ccccc2)cc1Cl | 20.3 µM | 40.7 µM | 27.2 µM | 60.2 µM | 20.4 µM | 39.2 µM | 42.1 µM | > 100 µM | 22.5 µM | 55 µM | 29.6 µM | 75.8 µM | 5.1 µM | 63.2 µM | 18.4 µM | 42.7 µM | 21.4 µM | 43.6 µM | 27.2 µM | 65.8 µM |
| C[C@@H]1CC[C@@]2(NC1)O[C@H]1C[C@H]3[C@@H]4CC[C@H]5C[C@@H](O)CC[C@]5(C)[C@H]4CC[C@]3(C)[C@H]1[C@@H]2C | – | 66.8 µM | – | > 100 µM | – | > 100 µM | – | 71.7 µM | – | > 100 µM | – | > 100 µM | – | 54.7 µM | – | > 100 µM | – | > 100 µM | – | > 100 µM |
| NC(Cc1ccccc1)c1nccs1 (stereo not given) | – | > 100 µM | – | > 100 µM | – | > 100 µM | – | > 100 µM | – | > 100 µM | – | > 100 µM | – | > 100 µM | – | > 100 µM | – | > 100 µM | – | > 100 µM |
| O=c1[nH]c(=O)n(C2CC(O)C(CO)O2)cc1C(F)(F)F (stereo not given) | > 100 µM | > 100 µM | 5.31 µM | > 100 µM | 1.75 µM | > 100 µM | > 100 µM | > 100 µM | 3.35 µM | > 100 µM | 4.81 µM | > 100 µM | 5.12 µM | > 100 µM | > 54.1 µM | > 100 µM | 3.68 µM | > 100 µM | 2.79 µM | > 100 µM |
| COc1cc2nccc(Oc3ccc(NC(=O)c4cn(C(C)C)c(=O)n(-c5ccc(F)cc5)c4=O)cc3F)c2cc1OC | 0.0453 µM | > 100 µM | > 100 µM | > 100 µM | 3.65 µM | > 40 µM | > 20.8 µM | > 100 µM | > 26 µM | > 100 µM | > 100 µM | > 100 µM | > 48.4 µM | > 100 µM | > 30.1 µM | > 100 µM | > 69.4 µM | > 100 µM | 0.435 µM | > 100 µM |
| O=c1/c(=N\Nc2ccccc2)c2cccc3ccc4cccc1c4c32 | – | > 100 µM | – | > 100 µM | – | > 100 µM | – | > 100 µM | – | > 100 µM | – | > 100 µM | – | > 100 µM | – | > 100 µM | – | > 100 µM | – | > 100 µM |
| CCOC(=O)/C=C/c1cccc(F)c1 | – | > 100 µM | – | > 100 µM | – | > 100 µM | – | > 100 µM | – | > 100 µM | – | > 100 µM | – | > 100 µM | – | > 100 µM | – | > 100 µM | – | – |
| O=C(/C=C/C12c3ccccc3C(c3ccccc31)C1C(=O)NC(=O)C12)c1ccccc1 (stereo not given) | 2.72 µM | 11 µM | 2.16 µM | 5.9 µM | 1.53 µM | 2.88 µM | 2.3 µM | 12.1 µM | 2.65 µM | 11.8 µM | 1.92 µM | 5.73 µM | 1.72 µM | 5.1 µM | 1.75 µM | 4.39 µM | 2.17 µM | 4.38 µM | – | – |
